# From patent US5135917A, “Interleukin receptor expression inhibiting antisense oligonucleotides” (Nova Pharmaceutical Corporation, priority 1990, dated 1992)
# What was measured:
# Format in all cases: cell-based
# Murine Swiss 3T3 cells = test: IL-1 stimulated prostaglandin E2 synthesis, murine fibroblasts; conditions: oligonucleotides 30 μm for 48 hours, then IL-1β 10 μ/ml for 6 hours, control 60
# Procedure: (§1) 1. IL-1 stimulated prostaglandin E2 synthesis.
# (§2) Effects of expression of IL-1 receptors by murine and human fibroblasts were assessed as follows Murine Swiss 3T3 cells (American Type Culture Collection ATCC CCL 92) or human dermal fibroblasts (primary culture) were grown in 96-well plates in Dulbecco's modified Eagles medium containing either 10% calf serum or 10% fetal bovine serum, respectively (Grand Island Biological Company), to confluency. The culture medium was replaced with identical medium except that the serum had been heat-inactivated at 65° C. for 15 minutes to inactivate nucleases. Oligonucleotides (30 μm) were added to the cultures and incubated for 48 hours. […] Oligonucleotides (phosphorothioates) S0-1, S0-2 and S0-3 are antisense to murine IL-1 receptor DNA and S0-6 is antisense to human IL-1 receptor DNA.
# human dermal fibroblasts [1] = test: Liposome delivery, IL-1 stimulated PGE2 in human dermal fibroblasts; conditions: liposomes; S0-6 30 μM; IL-1 10 U/ml for 4 hours; control (empty liposome) 65
# Procedure: For the experiment human dermal fibroblasts were incubated for 18 hours with IL-1, 100 u/ml., to down-regulate existing receptors. The cells were then rinsed three times with phosphate-buffered saline containing 2 mM calcium and 0.1 mM magnesium to remove IL-1, then incubated 30 minutes. Liposomes were then added and the mixture was incubated for 30 minutes. Finally, polyethylene glycol (M.W.6000) was added for 1 minute, then the cultures were rinsed three times in culture medium. Cultures were incubated for eight hours, then stimulated with IL-1, 10 U/ml for 4 hours. Media were collected for radioimmunoassy of PGE2.
# human dermal fibroblasts [2] = test: IL-1 stimulated prostaglandin E2 synthesis, human fibroblasts; conditions: Human cells; oligonucleotides 30 μm for 48 hours, then IL-1β 10 μ/ml for 6 hours; control 25
# Procedure: as §1, §2
substance,measurement,setting,value
"IL-1: cytokine interleukin 1, used as stimulus of prostaglandin E2 synthesis","PGE2, pg/well",Murine Swiss 3T3 cells,375 pg/well
same,"PGE2, pg/well",human dermal fibroblasts [1],398 pg/well
same,"PGE2, pg/well",human dermal fibroblasts [2],285 pg/well
